Experimental data published in article PMC2956696, “A novel antiangiogenic peptide derived from hepatocyte growth factor inhibits neovascularization in vitro and in vivo” (Molecular Vision, 2010).
No end group written: not given here.

Key:
RF/6A cells [1] = assay: Cell viability with H-RN alone (MTS); assay type: cell-based, rhesus macaque; conditions: any concentration tested, vs culture medium group
Procedure: A cell proliferation assay was performed as described previously. A colorimetric MTS (3-(4,5-dimeth-ylthiazol-2-yl)-5-(3-carboxymethoxyphenol)-2-(4-sulphophenyl)-2H-tetrazolium) assay (CellTiter 96 AQ; Promega, Madison, WI) was used according to the manufacturer’s instructions. Briefly, cells were seeded onto a 96-well plate (4.8×10^3 cells/well). After 24 h, cells were serum-starved overnight, and then treated with 100 ng/ml VEGF and various doses of H-RN or H-FT (0, 1 μM, 10 μM, 100 μM, or 1 mM) in 100 μl of serum-free medium for an additional 24 h. In positive control group, 100 μl of serum-free medium contains 100 ng/ml VEGF and 0.25 or 2.5 mg/ml bevacizumab (Avastin®, Hoffmann-La Roche Ltd., Basel, Switzerland), and the negative control group contains 100 ng/ml VEGF and a scrambled peptide at concentrations of 1 μM, 10 μM, 100 μM, or 1 mM. […] The absorbance at 490 nm was recorded using a microplate reader (Bio-Rad, Model 680, Hercules, CA). […]
RF/6A cells were exposed for 24 h to VEGF (100 ng/ml), or to VEGF combined with various concentrations of bevacizumab, H-RN, or H-FT. […] At the highest dose of H-RN tested (1 mM), the mean absorbance value was very close to that of the control group (0.735 versus 0.673), though this inhibitory effect was not as strong as that of 2.5 mg/ml bevacizumab (0.735 versus 0.615). […]

RF/6A cells [2] = assay: VEGF-driven cell migration assay (Transwell); assay type: cell-based, rhesus macaque; conditions: 100 ng/ml VEGF, 24 h, H-FT 1 nM to 1 µM, bevacizumab both concentrations
Procedure: A cell migration assay was performed as described previously, with modification as below. Briefly, RF/6A cells were starved overnight, trypsinized, and suspended at a final concentration of 5×10^5 cells/ml. Various concentrations of bevacizumab or peptides were preincubated with the cells for 30 min at 37 °C before seeding into the Transwell chambers (pretreated by culture medium, 10 mm diameter, 8.0 µm pore size; Corning Inc., New York, NY), the 5×10^4 cells were added to each upper chamber. VEGF (100 ng/ml) was placed into the lower chamber. The assembled cell-culture insert chamber was then incubated at 37 °C for 24 h. After removing the nonmigrating cells in the upper chambers with a cotton swab, migrated cells on the lower surface of the porous membrane were fixed, stained with Gram stain, and photographed under a light microscope (Olympus, Tokyo, Japan). Five random fields (×200) were chosen in each insert, and the cell number was quantified manually. Each experiment was repeated three times.

RF/6A cells [3] = assay: Endothelial cell tube formation assay on Matrigel; assay type: cell-based, rhesus macaque; conditions: 100 ng/ml VEGF, 6 h, peptides 100 nM-1 mM, bevacizumab both concentrations
Procedure: A tube formation assay was performed as previously described. The 96 well culture plate were coated with Matrigel™ (BD Biosciences, Bedford, MA) according to the manufacturer’s instructions. RF/6A cells (2.5×10^4 in number) were preincubated with various concentrations of bevacizumab or peptides (100 nM–1 mM) before being seeded on coated plates in a serum-free medium containing VEGF 100 ng/ml, and then incubated at 37 °C for 6 h. Tube formation was observed using an inverted phase contrast microscope (Olympus, Tokyo, Japan). Images were captured with a digital camera (Olympus). The degree of tube formation was quantified by measuring the length of tubes in three randomly chosen fields (with magnification of ×100) from each well using the Image-Pro Plus Program (version 5.1; Media Cybernetics, Inc.). Each group was tested in triplicate. Each experiment was repeated three times.

RF/6A cells [4] = assay: VEGF-stimulated cell proliferation assay (MTS); assay type: cell-based, rhesus macaque; conditions: 24 h
Procedure: A cell proliferation assay was performed as described previously. A colorimetric MTS (3-(4,5-dimeth-ylthiazol-2-yl)-5-(3-carboxymethoxyphenol)-2-(4-sulphophenyl)-2H-tetrazolium) assay (CellTiter 96 AQ; Promega, Madison, WI) was used according to the manufacturer’s instructions. Briefly, cells were seeded onto a 96-well plate (4.8×10^3 cells/well). After 24 h, cells were serum-starved overnight, and then treated with 100 ng/ml VEGF and various doses of H-RN or H-FT (0, 1 μM, 10 μM, 100 μM, or 1 mM) in 100 μl of serum-free medium for an additional 24 h. In positive control group, 100 μl of serum-free medium contains 100 ng/ml VEGF and 0.25 or 2.5 mg/ml bevacizumab (Avastin®, Hoffmann-La Roche Ltd., Basel, Switzerland), and the negative control group contains 100 ng/ml VEGF and a scrambled peptide at concentrations of 1 μM, 10 μM, 100 μM, or 1 mM. After completion of the treatment, 20 μl of the 3-(4,5-dimethylthiazol-2-yl)-5-(3-carboxymethoxyphenol)-2-(4-sulphophenyl)-2H-tetrazolium (MTS) reagent were pipetted into each well and incubated for 4 h. The absorbance at 490 nm was recorded using a microplate reader (Bio-Rad, Model 680, Hercules, CA). Each group was tested at least in triplicate, and the assays were repeated a minimum of three times.

H-FTSNPEVRYEV-OH
Peptide remaining after 48 h: > 90%

RNPRGEEGGPW [H-RN]
Peptide remaining after 48 h: > 90%
Cell viability with peptide alone (in words) (RF/6A cells [1]): cell viability was not affected

bevacizumab
Inhibition of VEGF-induced cell migration (in words) (RF/6A cells [2]): effectively inhibited cell migration
Inhibition of VEGF-induced tube formation (in words) (RF/6A cells [3]): strongly inhibited
Inhibition of VEGF-induced cell proliferation (in words) (RF/6A cells [4]; 100 ng/ml VEGF, peptides 1 μM-1 mM, bevacizumab 2.5 mg/ml): strongly inhibited
Mean absorbance value (490 nm, MTS), VEGF-induced proliferation (RF/6A cells [4]; 2.5 mg/ml bevacizumab + 100 ng/ml VEGF, serum-free medium, control group 0.673): 0.615
